The source of these data is patent US7166588B2 (priority 2000, dated 2007).

Molecules are shown by their SMILES. Structures can show the parent of a compound that is named as a salt.

Chain of acetylcholinesterase (AChE), human recombinant (P22303 32-614): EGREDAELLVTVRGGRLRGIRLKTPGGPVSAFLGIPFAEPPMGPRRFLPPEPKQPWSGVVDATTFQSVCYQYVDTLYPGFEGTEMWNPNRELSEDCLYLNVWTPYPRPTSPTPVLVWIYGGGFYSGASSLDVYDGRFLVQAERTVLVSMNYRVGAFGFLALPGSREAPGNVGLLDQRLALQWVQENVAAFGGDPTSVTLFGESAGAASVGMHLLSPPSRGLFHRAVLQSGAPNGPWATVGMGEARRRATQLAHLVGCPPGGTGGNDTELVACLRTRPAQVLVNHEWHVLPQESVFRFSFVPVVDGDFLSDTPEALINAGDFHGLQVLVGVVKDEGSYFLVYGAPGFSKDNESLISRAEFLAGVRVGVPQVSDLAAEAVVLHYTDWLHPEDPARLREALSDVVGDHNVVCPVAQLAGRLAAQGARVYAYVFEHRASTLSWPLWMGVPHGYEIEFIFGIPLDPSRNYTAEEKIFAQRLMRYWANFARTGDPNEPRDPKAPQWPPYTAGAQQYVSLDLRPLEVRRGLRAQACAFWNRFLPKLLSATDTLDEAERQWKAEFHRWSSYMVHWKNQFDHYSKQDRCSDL

This experiment has as its target acetylcholinesterase (AChE), human recombinant (Homo sapiens, UniProt P22303). The experiment can be described thus: biochemical. The following applies: pre-incubation of the enzyme with inhibitor, read-out: IC50 (AChE, mE, hr).
The IC50 is the concentration needed to halve the response being measured. Regarding `C#CC[N+]1(C)CC[C@@]23C=C[C@@H](O)C[C@@H]2Oc2c(OC)cc(C)c(c23)C1` (mixture of isomers) [SPH-1251], the IC50 worked out at 59 µM.
To `COc1ccc2c3c1O[C@H]1CC(O)C=C[C@@]31CCN(C(=O)OC(C)(C)C)C2` (relative stereo) [SPH-1302, (4aa,6β,8aR*)-4a,5,9,10-Tetrahydro-6-hydroxy-3-methoxy-6H-benzofuro[3a,3,2-ef][2]benzazepine-11(12H)-carboxylic acid-1,1-dimethylethyl ester] belongs 23 µM.
In the case of `COc1ccc2c3c1O[C@H]1CC(O)C=C[C@@]31CC[N+](C)(Cc1ccc(Br)cc1)C2` (single isomer, unassigned; (-)) [SPH-1184, (−)(4-Bromophenyl)methylgalanthaminium bromide hemihydrate] it was 0.2 µM; in that of `COc1ccc2c3c1O[C@H]1CC(O)C=C[C@@]31CC[N+](C)(CCCCl)C2` (single isomer, unassigned; (-)) [SPH-1191, (−)(3-Chloropropyl)-galanthaminium Bromide, 1.25 H2O], 0.35 µM; in that of `COc1ccc2c3c1O[C@@H]1CC(O)C=CC31CCN(C(=O)NC(C)C)C2` (stereo in doubt) [SPH-1214, (6R)-6-Hydroxy-N^11-isopropyl-3-methoxy-5,6,9,10-tetrahydro-4aH-[1]benzofuro[3a,3,2-ef][2]benzazepine-11(12H)carboxamide], 4.2 µM.
In the case of `COc1ccc2c3c1O[C@@H]1CC(O)C=CC31CCN(c1ccnc(OCCCN(C)C)n1)C2` (stereo in doubt) [SPH-1244, (6R)-11-(2-(3-(Dimethylamino)propoxy)-4-pyrimidinyl)-3-methoxy-5,6,9,10,11,12-hexahydro-4aH-[1]benzofuro[3a,3,2-ef][2]benzazepin-6-ol] it was 7.6 µM.
As for `COc1ccc2c3c1O[C@@H]1CC(O)C=CC31CCN(CCCN1CCCCC1)C2` (stereo in doubt) [SPH-1371, (4aα,6b, 8aR* )-4a,5,9,10,111,12-Hexahydro-3-methoxy-11-[3-(1-piperidinyl)propyl]-6H-benzofuro[3a,3,2-ef][2]benzazepin-6-ol, Dihydrobromide, Dihydrate], the half-inhibitory concentration (IC50) amounted to 0.36 µM.
In the case of `COc1ccc2c3c1O[C@@H]1C[C@H](O)C=CC31CCN(CCCN1CC3CC1CN3c1ccc(F)cc1)C2` (stereo partly shown) [SPH-1196] it was 5.2 µM.
With `COc1cc(C)c2c3c1O[C@@H]1C[C@H](O)C=CC31CCN(CCCN1CCCCC1)C2` (stereo partly shown) [SPH-1201], the half-inhibitory concentration (IC50) amounted to 46 µM.
In the case of `C#CC[N+]1(C)CCC23C=C[C@@H](O)C[C@H]2Oc2c(OC)cc(C)c(c23)C1` (stereo partly shown) [SPH-1206] it was 78 µM; in that of `COc1cc(C)c2c3c1O[C@@H]1C[C@H](O)C=CC31CC[N+](C)(Cc1ccccc1)C2` (stereo partly shown) [SPH-1207], 47 µM; in that of `CNC(=S)N1CCC23C=C[C@H](O)CC2Oc2c(OC)cc(Br)c(c23)C1` (stereo partly drawn) [SPH-1209, (6R)-1-Bromo-6-hydroxy-3-methoxy-N^11-methyl-5,6,9,10-tetrahydro-4aH-[1]benzofuro[3a,3,2-ef][2]benzazepine-11(12H)-thiocarboxylic acid amide], 31 µM.
To `CNC(=S)N1CCC23C=C[C@@H](O)C[C@H]2Oc2c(OC)ccc(c23)C1` (stereo partly shown) [SPH-1211] belongs 23 µM; to `COc1ccc2c3c1O[C@@H]1C[C@H](O)C=CC31CCN(C(=O)Nc1ccccc1)C2` (stereo partly shown) [SPH-1215], 70 µM; to `COc1ccc2c3c1O[C@@H]1C[C@H](O)C=CC31CCN(C=C(C#N)C#N)C2` (stereo partly shown) [SPH-1219], 28.5 µM.
To `COc1ccc2c3c1O[C@@H]1C[C@H](O)C=CC31CCN(CCCO)C2` (stereo partly shown) [SPH-1220] belongs 7.2 µM; to `COc1ccc2c3c1O[C@@H]1C[C@H](O)C=CC31CCN(C(=O)NC(C)(C)C)C2` (stereo partly shown) [SPH-1221], 4.8 µM.
As to `COc1ccc2c3c1O[C@@H]1C[C@H](N)C=CC31CCN(C)C2` (stereo partly drawn) [SPH-1227, [4aS-(4aα,6α,8aR*)]-4a,5,9,10,11,12-Hexahydro-3-methoxy-11-methyl-6H-benzofuro[3a,3,2-ef][2]benzazepine-6-amine], the IC50 was determined as 40 µM.
Regarding `COc1ccc2c3c1O[C@@H]1C[C@H](O)C=CC31CCN(c1ncccn1)C2` (stereo partly shown) [SPH-1229], the 50% inhibitory concentration (IC50) is 38 µM.
Take `COc1ccc2c3c1O[C@@H]1C[C@H](O)C=CC31CCN(C(=O)Nc1ccc3ccccc3c1)C2` (stereo partly shown) [SPH-1232]: the half-maximal inhibitory concentration (IC50) turned out to be 36 µM.
In the case of `COc1ccc2c3c1O[C@@H]1C[C@H](O)C=CC31CCN(CCCN)C2` (stereo partly shown) [SPH-1235] it was 3.4 µM; in that of `C=CCNC(=S)N1CCC23C=C[C@@H](O)C[C@H]2Oc2c(OC)ccc(c23)C1` (stereo partly shown) [SPH-1236], 21 µM.
In the case of `COc1ccc2c3c1O[C@@H]1C[C@H](O)C=CC31CCN(C(=O)Nc1ccc(Cl)cc1)C2` (stereo partly shown) [SPH-1237] it was 24 µM; in that of `CCN(CC)c1nc(N(CC)CC)nc(N2CCC34C=C[C@@H](O)C[C@H]3Oc3c(OC)ccc(c34)C2)n1` (stereo partly shown) [SPH-1243], 40 µM; in that of `CCN(CC)c1nccc(N2CCC34C=C[C@@H](O)C[C@H]3Oc3c(OC)ccc(c34)C2)n1` (stereo partly shown) [SPH-1245], 25 µM.
Turning to `COc1ccc2c3c1O[C@@H]1C[C@H](O)C=CC31CCN(CCC(=O)NC(C)(C)C)C2` (stereo partly shown) [SPH-1249], the IC50 is 45 µM.
In the case of `COc1cc(C)c2c3c1O[C@@H]1C[C@H](O)C=CC31CC[N+](C)(Cc1ccc(C(F)(F)F)cc1)C2` (stereo partly shown) [SPH-1253] it was 60 µM.
Take `COC(=O)/C=C(\C(=O)OC)N1CCC23C=C[C@@H](O)C[C@H]2Oc2c(OC)ccc(c23)C1` (stereo partly shown) [SPH-1259]: the half-maximal inhibitory concentration (IC50) was 140 µM.
To `COc1ccc2c3c1O[C@@H]1C[C@H](O)C=CC31CCN(CCC(=O)NC(C)C)C2` (stereo partly shown) [SPH-1262] belongs 54.5 µM.
In the case of `COc1ccc2c3c1O[C@@H]1C[C@H](O)C=CC31CCN(C(=O)NC(C)c1ccccc1)C2` (stereo partly shown) [SPH-1267] it was 30 µM; in that of `COc1ccc2c3c1O[C@@H]1CC(O)C=CC31CCN(C(N)=O)C2` (stereo partly shown) [SPH-1268], 44 µM; in that of `COc1ccc2c3c1O[C@@H]1C[C@H](O)C=CC31CCN(C(=O)NC(C)C)C2` (stereo partly shown) [SPH-1269], 2.6 µM.
Consider `COc1ccc2c3c1O[C@@H]1C[C@H](O)C=CC31CCN(C(=O)NC(C)(C)C)C2` (stereo partly shown) [SPH-1270], for which the IC50 amounted to 2.5 µM.
In the case of `COc1ccc2c3c1O[C@@H]1CC(O)C=CC31CCN(/C(=N/C#N)SC)C2` (stereo partly shown) [SPH-1272] it was 6.7 µM.
Regarding `COc1ccc2c3c1O[C@@H]1CC(O)C=CC31CCN(c1ccccc1)C2` (stereo partly shown) [SPH-1280], the IC50 worked out at 0.5 µM.
To `COc1ccc2c3c1O[C@@H]1CC(O)C=CC31CCN(c1cccs1)C2` (stereo partly shown) [SPH-1282] belongs 4 µM; to `COc1ccc2c3c1O[C@H]1CC(O)C=CC31CCN(C(=O)NC(C)(C)C)C2` (stereo partly shown) [SPH-1283], 93 µM.
To `COc1ccc2c3c1O[C@H]1CC(O)C=CC31CCN(C(=O)NC(C)C)C2` (stereo partly shown) [SPH-1284] belongs 8 µM; to `COc1ccc2c3c1O[C@@H]1CC(O)C=CC31CCN(CCCN1CCCCC1)C2` (stereo partly shown) [SPH-1286], 0.3 µM.
In the case of `CNC(=S)N1CCC23C=C[C@@H](O)C[C@H]2Oc2c(OC)ccc(c23)C1` (stereo partly shown) [SPH-1287] it was 18.5 µM.
With `COc1ccc2c3c1O[C@@H]1CC(O)C=CC31CCN(CC1CC1)C2` (stereo partly shown) [SPH-1289], the 50% inhibitory concentration (IC50) was 0.7 µM.
To `COc1ccc2c3c1O[C@@H]1CC(O)C=CC31CCN(C)C2C#N` (stereo partly shown) [SPH-1290] belongs 1.2 µM; to `COc1ccc2c3c1O[C@@H]1CC(O)C=CC31CCN(C)C2C#N` (stereo partly shown) [SPH-1291], 0.8 µM; to `COc1ccc2c3c1O[C@@H]1CC(O)C=CC31CCN(C(=O)OCC1c3ccccc3-c3ccccc31)C2` (stereo partly shown) [SPH-1292], 40 µM.
In the case of `COc1ccc2c3c1O[C@@H]1CC(O)C=CC31CCN(C)C2C` (stereo partly shown) [SPH-1293] it was 4.2 µM; in that of `COc1ccc2c3c1O[C@@H]1CC(O)C=CC31CCN(CC#N)C2` (stereo partly shown) [SPH-1295], 15 µM; in that of `COc1ccc2c3c1O[C@@H]1CC(O)C=CC31CCN(C(=O)Oc1ccccc1)C2` (stereo partly shown) [SPH-1296], 46 µM.
For `COc1ccc2c3c1O[C@@H]1CC(O)C=CC31CCN(CCCN1CC3CC1CN3c1ccc(F)cc1)C2` (stereo partly shown) [SPH-1312], the 50% inhibitory concentration (IC50) stood at 3 µM.
To `COc1ccc2c3c1O[C@@H]1CC(O)C=CC31CCN(CC(=O)N1CC3CC1CN3c1ccccc1)C2` (stereo partly shown) [SPH-1314] belongs 8.4 µM; to `COc1ccc2c3c1O[C@@H]1CC(O)C=CC31CCN(CCCO)C2` (stereo partly shown) [SPH-1315], 2.8 µM; to `COc1cc(C)c2c3c1O[C@@H]1CC(O)C=CC31CCN(C)C2C#N` (stereo partly shown) [SPH-1317], 80 µM.
As for `COc1cc(C)c2c3c1OC1CC(O)C=CC31CCN(C)C2C` (stereo not shown) [SPH-1320], the IC50 was 83 µM.
To `COc1ccc2c3c1O[C@@H]1CC(O)C=CC31CCN(C(=S)Oc1ccccc1)C2` (stereo partly shown) [SPH-1328] belongs 7.2 µM; to `COc1ccc2c3c1O[C@H]1CC(O)C=CC31CCN(CCCN1CCCCC1)C2` (stereo partly shown) [SPH-1333], 9 µM; to `COc1cc2c(cc1OC)C(=O)C(CCCCN1CCC34C=CC(O)C[C@H]3Oc3c(OC)ccc(c34)C1)C2` (stereo partly shown) [SPH-1335], 0.02 µM.
`COc1cc2c(cc1OC)C(=O)C(CCCCCN1CCC34C=CC(O)C[C@H]3Oc3c(OC)ccc(c34)C1)C2` (stereo partly drawn) [SPH-1359, 2-[5-[(4aS,6R,8aS)-6-Hydroxy-3-methoxy-5,6,9,10,11,12-hexahydro-4aH-benzofuro[3a,3,2-e,f][2]benzazepine-11-yl]pentyl]-5,6-dimethoxyindan-1-one]: the IC50 is 0.0052 µM.
In the case of `COc1cc2c(cc1OC)C(=O)C(CCCCCN1CCC34C=CC(O)C[C@H]3Oc3c(OC)ccc(c34)C1)C2` (stereo partly shown) [SPH-1375], the 50% inhibitory concentration (IC50) came to 0.023 µM.
In the case of `COc1cc2c(cc1OC)C(=O)C(CCCCN1CCC34C=CC(O)C[C@H]3Oc3c(OC)ccc(c34)C1)C2` (stereo partly shown) [SPH-1376] it was 0.02 µM.
